# Measurements reported in ChEMBL document CHEMBL3507680, “University of Dundee, Gates Library screen for HepG2 cell viability”.
# Test: Human HepG2 cell viability assay in 384 well format
# Assay type: toxicity, cell-based
# Design: dose 125 nL, time 70.5 hour; concentration not given beside the values
# Details: HepG2 cells, read-out: Inhibition
row,Structure (SMILES),cytotoxicity at 70.5 h [%]
1,COc1ccc(C(=O)O)cc1-c1cccc2c1CCNC2,-11.6
2,Cn1cccc1C(=O)N1CCC2(CCCN2c2ncccn2)CC1,-13.8
3,CC(c1ccccc1F)N(CC(N)=O)C1CC1 (centres undefined),-4.03
4,O=C(c1ccc(Cl)o1)N1CCCN(Cc2cscn2)CC1,-5.01
5,CC(=O)c1ccc(-n2ccc3nc(N4CCCC4)ncc3c2=O)cc1,-5.08
6,Cn1ncnc1-c1ccnc(NCCCc2ccncc2)n1,-17.5
7,CN(Cc1cc(F)ccc1C#N)CC(C)(CO)CO,-4.66
8,FC(F)CN1CCC(NCc2ccc(-n3cccn3)nc2)CC1,-9.95
9,CN(Cc1noc(-c2ccccc2)n1)C(=O)CSc1nnc(N)s1,14.3
10,O=C(NS(=O)(=O)Cc1ccc(F)cc1)C1CCc2ccccc21 (centres undefined),3.78
11,O=C(c1ccccn1)N1CCOC2(COCCN(Cc3cc[nH]n3)C2)C1 (centres undefined),-3.84
12,CCOc1ccccc1CNC(=O)NCC(c1cnn(C)c1)N(C)C (centres undefined),-9.13
13,CN1CCC2(CCN(c3ncc(F)cn3)CC2)C1=O,-1.11
14,Cc1cc(CC(C)NC2CCSCC2)[nH]n1 (centres undefined),-5.1
15,COc1ccc(C2CCCN2c2ccnc(C)c2Cl)c(OC)c1 (centres undefined),33.7
16,CCN1CCN(S(=O)(=O)N2CCCCCC2)[C@H]2CS(=O)(=O)C[C@H]21,30
17,C[C@@H]1CN(CCC(=O)NCc2ccccc2Cl)C[C@@]1(O)C1CC1,-2.59
18,CN(CC(N)=O)S(=O)(=O)c1ccc(F)cc1F,-7.55
19,O=C(NC1CC(F)(F)C1)[C@]12COC[C@H]1CN(Cc1ccccc1)C2,-9.36
20,Cc1nc2c(N3CCN(Cc4ccccc4)CC3)nc(N)nc2n1C,0.226
21,CN(C)c1nc2c(c(=O)[nH]1)CCN(C(=O)c1c[nH]c(=O)c(Cl)c1)C2,-0.451
22,Cn1cc(NC(=O)c2cccc(-n3cnnn3)c2)cn1,-13.6

row,Structure (SMILES),cytotoxicity at 70.5 h [%]
1,CC(C)CNC(=O)C[S+]([O-])Cc1csc(C2CCCCC2)n1 (centres undefined),-13
2,CN1CC=C(c2noc(CCC(=O)N3CCc4ccccc43)n2)CC1,-26.2
3,Cc1cc(C2CCCN2C(=O)c2csc(-c3cnn(C)c3)n2)on1 (centres undefined),2.44
4,CC(C)C(=O)N1CCN(C(=O)c2cc(Cl)no2)[C@H]2CS(=O)(=O)C[C@H]21,-2.12
5,O=C(CCn1cccn1)N1CCC(C2CCN(c3ncccn3)CC2)C1 (centres undefined),-6.6
6,Cc1ccc2c(c1)C(=O)NCC1(CCN(C(=O)c3cnccn3)CC1)O2,-11
7,COCc1c(C(=O)N2CCCC(C(=O)c3ccccc3)C2)noc1C (centres undefined),-3.85
8,COc1ccc2c(c1)C(=O)NC1(CC2)CCN(Cc2ccc(F)cc2)C1 (centres undefined),5.75
9,CC(=O)N1CCC(c2cccc(-c3cccc(C(=O)O)c3)n2)CC1,-0.201
10,COc1ccc(C(C(=O)O)N(C)CCN2CCCC2)cc1F (centres undefined),-9.88
11,Cc1nnc(-c2cccc(N3CCC(NC4CCSC4)CC3)c2)s1 (centres undefined),4.71
12,Cc1cc(C)c(C(=O)NC2CCN(c3ncccc3C#N)CC2)c(=O)[nH]1,-11.1
13,CSc1ccc2c(C)cc(N[C@@H](C)CO)nc2c1,23.3
14,CCC[C@H]1CN(c2cncc(C(=O)N3CCCCC3)n2)C[C@@H]1N(C)C,-3.35
15,CCc1nnsc1C(=O)N1CCCN(Cc2ccc(F)cc2)CC1,-9.04
16,COC[C@@]12CC[C@@H](N3CCOCC3)C[C@H]1CCN(c1ncccc1C)C2,-0.155
17,CC(NC(=O)Nc1cccnc1N1CCCC1)c1nncn1C (centres undefined),-13.7
18,Cc1cc(Br)ccc1C(=O)N(C)CCNS(C)(=O)=O,-6.05
19,c1coc(-c2nc(CN3CCn4c(nnc4C4CC4)C3)cs2)c1,-8.26
20,COc1cc(CNc2nc(C(F)(F)F)no2)cc(OC)c1OC,-4.05
21,CCCC(C)C(=O)NCc1cn2cc(Br)ccc2n1 (centres undefined),-7.73
22,Cc1cc(C(NC(=O)CNS(C)(=O)=O)C(C)C)c(C)s1 (centres undefined),1.39
